In US4522815A, “Anthracycline glycosides” (priority 1982, dated 1985):
≈ marks a conversion by molar mass, not a printed value.

Assays:
HeLa cells = test: Colony inhibition test against HeLa cells in vitro (cloning efficiency), treatment for 24 hrs; format: cell-based
[1] = Antitumor activity against ascitic P388 leukemia in CDF-1 mice, treatment i.p. on day 1; format: in vivo; details: mouse, in vivo, ip, CDF-1 mice; read-out: Maximal Tolerated Dose (Mx TD)
Method: (§1) The primary screening […] was carried out in CDF-1 mice bearing ascitic P388 leukemia (10^6 cells/mouse). Both IIa and IIc were suspended in 10%. Tween 80 and injected intraperitoneally.
(§2) Results of the primary screening "in vivo" carried out in CDF-1 mice bearing P388 ascitic leukemia and treated i.p. the day after tumor transplantation, are reported in Table 5.
(§3) Antitumor activity against ascitic P388 leukekemia.
(§4) Treatment i.p. on day 1.
(§5) ^a median survival time; % over untreated controls
(§6) ^b long term survivors (≥ 60 days)
(§7) ^c evaluated on the basis of autoptic findings on dead mice
(§8) ^d data of two experiments (range)
(§9) ^e date of three experiments (range)
(§10) Antitumor activity of Ib and Id against ascitic P388
as §4

ascitic P388 leukemia = test: as above; format: in vivo; details: for LTS, long term survivors (≥ 60 days) / T/C, median survival time; % over untreated controls / Toxic deaths (autoptic findings on dead mice): Table 2
Method: as §1, §2, §3, §4, §5, §6, §7, §8, §9, §10, §4

SMILES: COc1cccc2c1C(=O)c1c(O)c3c(c(O)c1C2=O)C[C@@](O)(C(C)=O)C[C@@H]3O[C@H]1C=C[C@@H](O)[C@H](C)O1 [Compound IIa, 7-0-(2,3,6-trideoxy-α-L-erythro-hex-2-enopyranosyl)-daunomycinone]
- times less cytotoxic than DNR (HeLa cells; HeLa cells cloning efficiency, vs DNR): about 25 times
- activity at 0.0015 µg/mL (HeLa cells; Homo sapiens, HeLa, Table 1, 1.5 ng/ml, 24 hrs, read-out: No of colonies, % of untreated controls): 120%
- activity at 0.0062 µg/mL (HeLa cells; Homo sapiens, HeLa, Table 1, 6.2 ng/ml, 24 hrs, read-out: No of colonies, % of untreated controls): 127%
- activity at 0.025 µg/mL (HeLa cells; Homo sapiens, HeLa, Table 1, 25 ng/ml, 24 hrs, read-out: No of colonies, % of untreated controls): 143%
- activity at 0.1 µg/mL (HeLa cells; Homo sapiens, HeLa, Table 1, 100 ng/ml, 24 hrs, read-out: No of colonies, % of untreated controls): 136%
- activity at 0.4 µg/mL (HeLa cells; Homo sapiens, HeLa, Table 1, 400 ng/ml, 24 hrs, read-out: No of colonies, % of untreated controls): 146%
- IC50 (HeLa cells; Homo sapiens, Table 1, HeLa colony inhibition, 24 hrs, read-out: ID50 (the source's name)): 0.4 µg/mL (≈ 0.784 µM)
- MTD [1]: 100 mg/kg
- LTS, long term survivors (≥ 60 days) (ascitic P388 leukemia; 75 mg/kg i.p. day 1): 0/5
- T/C, median survival time; % over untreated controls (ascitic P388 leukemia; 75 mg/kg i.p. day 1): 120%
- Toxic deaths (autoptic findings on dead mice) (ascitic P388 leukemia; 75 mg/kg i.p. day 1): 0/5
- LTS, long term survivors (≥ 60 days) (ascitic P388 leukemia; 100 mg/kg i.p. day 1): 0/10
- T/C, median survival time; % over untreated controls (ascitic P388 leukemia; 100 mg/kg i.p. day 1): 90%
- Toxic deaths (autoptic findings on dead mice) (ascitic P388 leukemia; 100 mg/kg i.p. day 1): 1/10
- toxicity and potency vs parent drugs DNR and DX (ascitic P388 leukemia; ascitic P388, i.p.): less toxic and potent than the parent drugs DNR and DX
- antitumor activity on P388 ascitic leukemia (ascitic P388 leukemia; i.p. day 1, IIa: two doses tested incl. Mx TD): inactive
